Reference: patent US9206201B2, “Boronic acid bearing liphagane compounds as inhibitors of P13K-α and/or β” (COUNCIL OF SCIENTIFIC & INDUSTRIAL RESEARCH, priority 2012, dated 2015)
Where two headings read alike, the source gives them in different places.

Tests used:
PI3Kα = PI3Kα (Homo sapiens (Human), UniProt P42336); assay: PI3K inhibition assay (PI3 Kinase activity/inhibitor assay kit), PI3Kα; assay type: biochemical; conditions: read-out: IC50 against PI3Kα
PI3Kβ = PI3Kβ (Homo sapiens (Human), UniProt P42338); assay: PI3K inhibition assay (PI3 Kinase activity/inhibitor assay kit), PI3Kβ; assay type: biochemical
Sequence of PI3Kβ (P42338 whole entry): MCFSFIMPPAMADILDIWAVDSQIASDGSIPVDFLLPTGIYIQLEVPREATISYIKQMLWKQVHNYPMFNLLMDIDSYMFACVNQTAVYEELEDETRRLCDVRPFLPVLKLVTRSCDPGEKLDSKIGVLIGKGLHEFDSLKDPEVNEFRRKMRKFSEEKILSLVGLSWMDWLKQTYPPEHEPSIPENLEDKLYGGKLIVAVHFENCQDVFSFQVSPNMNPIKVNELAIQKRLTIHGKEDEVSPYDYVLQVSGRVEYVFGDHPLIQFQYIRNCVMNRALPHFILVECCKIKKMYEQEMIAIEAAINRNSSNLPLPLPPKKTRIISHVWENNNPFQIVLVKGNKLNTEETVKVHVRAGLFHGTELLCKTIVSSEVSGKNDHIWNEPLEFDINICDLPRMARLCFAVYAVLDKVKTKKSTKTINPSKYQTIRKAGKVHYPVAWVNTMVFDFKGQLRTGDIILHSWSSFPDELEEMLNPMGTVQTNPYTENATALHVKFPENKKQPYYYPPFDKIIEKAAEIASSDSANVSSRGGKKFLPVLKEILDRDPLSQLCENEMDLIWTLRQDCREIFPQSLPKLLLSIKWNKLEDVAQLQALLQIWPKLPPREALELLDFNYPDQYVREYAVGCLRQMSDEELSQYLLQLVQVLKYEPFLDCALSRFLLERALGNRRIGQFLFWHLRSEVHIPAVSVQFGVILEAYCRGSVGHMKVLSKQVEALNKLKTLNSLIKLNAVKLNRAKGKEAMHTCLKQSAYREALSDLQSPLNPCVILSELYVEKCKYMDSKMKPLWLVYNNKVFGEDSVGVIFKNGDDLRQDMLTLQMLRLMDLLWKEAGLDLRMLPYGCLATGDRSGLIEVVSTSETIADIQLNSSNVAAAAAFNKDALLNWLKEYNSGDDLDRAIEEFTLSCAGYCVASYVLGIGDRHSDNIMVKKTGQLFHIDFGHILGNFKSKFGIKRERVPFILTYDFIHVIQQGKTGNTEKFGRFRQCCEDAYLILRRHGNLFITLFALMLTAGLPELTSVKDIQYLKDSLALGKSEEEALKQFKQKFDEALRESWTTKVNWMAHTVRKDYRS
Sequence of PI3Kβ (P27986 whole entry partner): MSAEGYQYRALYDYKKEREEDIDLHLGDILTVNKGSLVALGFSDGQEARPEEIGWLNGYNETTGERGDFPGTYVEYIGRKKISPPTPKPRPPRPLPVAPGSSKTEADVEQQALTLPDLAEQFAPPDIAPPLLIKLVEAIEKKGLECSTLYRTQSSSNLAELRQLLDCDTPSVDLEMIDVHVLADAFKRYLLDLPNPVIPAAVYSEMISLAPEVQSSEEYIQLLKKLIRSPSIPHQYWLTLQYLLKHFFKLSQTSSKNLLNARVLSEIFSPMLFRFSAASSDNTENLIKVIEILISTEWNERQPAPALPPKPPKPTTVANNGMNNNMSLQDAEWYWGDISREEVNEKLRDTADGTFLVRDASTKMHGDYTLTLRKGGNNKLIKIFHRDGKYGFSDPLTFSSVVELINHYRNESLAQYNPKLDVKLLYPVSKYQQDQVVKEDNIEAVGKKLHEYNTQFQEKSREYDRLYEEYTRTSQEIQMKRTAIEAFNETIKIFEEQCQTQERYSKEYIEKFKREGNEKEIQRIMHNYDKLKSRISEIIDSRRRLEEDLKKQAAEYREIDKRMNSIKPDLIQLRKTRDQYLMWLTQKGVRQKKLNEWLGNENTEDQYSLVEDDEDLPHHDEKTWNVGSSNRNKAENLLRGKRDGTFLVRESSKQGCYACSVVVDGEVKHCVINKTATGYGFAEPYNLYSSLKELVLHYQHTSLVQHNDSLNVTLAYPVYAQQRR
Procedure: PI3K inhibition assay (PI3K Assay (Emmanuelle M, Huang […] et al. Targeting Protein Translation in Human Non-Small Cell Lung Cancer via Combined MEK and Mammalian Target of Rapamycin Suppression. Cancer Res 67:(23). (2007).) was carried out by PI3 Kinase activity/inhibitor assay kit, where PI3 kinase reaction was set up in Glutathione-coated strips/plate for inhibitor reaction. Kinase and inhibitors were pre-incubated for 10 minutes prior to the addition of PIP2 substrate. 5 μL of 5× kinase reaction buffer were added in each well followed by the further addition of 5 μL/well of PIP2 substrate. Then distilled H2O was added to each well so as to make up a final volume of 25 μL/well. Incubation was done at rt for 1 hour which was followed by washing the wells 3 times with 200 μL of 1×TBST per well and then 2 times with 200 μL of IX TBS per well. Then 100 μL of the Substrate TMB per well was added and then to keep for colour development in the dark for 5-20 minutes. However, appearance of the blue color to avoid over-development were monitored. 100 μL of the stop solution per well was used to stop the reaction. Readings were recorded at 450 nm. The IC50 value of a drug measures the effectiveness of a compound in inhibiting biological or biochemical function. […]

PI3K γ = PI3K γ (Homo sapiens (Human), UniProt P48736); assay: PI3K inhibition assay, PI3K γ isoform; assay type: biochemical
Sequence of PI3K γ (P48736 whole entry, canonical isoform): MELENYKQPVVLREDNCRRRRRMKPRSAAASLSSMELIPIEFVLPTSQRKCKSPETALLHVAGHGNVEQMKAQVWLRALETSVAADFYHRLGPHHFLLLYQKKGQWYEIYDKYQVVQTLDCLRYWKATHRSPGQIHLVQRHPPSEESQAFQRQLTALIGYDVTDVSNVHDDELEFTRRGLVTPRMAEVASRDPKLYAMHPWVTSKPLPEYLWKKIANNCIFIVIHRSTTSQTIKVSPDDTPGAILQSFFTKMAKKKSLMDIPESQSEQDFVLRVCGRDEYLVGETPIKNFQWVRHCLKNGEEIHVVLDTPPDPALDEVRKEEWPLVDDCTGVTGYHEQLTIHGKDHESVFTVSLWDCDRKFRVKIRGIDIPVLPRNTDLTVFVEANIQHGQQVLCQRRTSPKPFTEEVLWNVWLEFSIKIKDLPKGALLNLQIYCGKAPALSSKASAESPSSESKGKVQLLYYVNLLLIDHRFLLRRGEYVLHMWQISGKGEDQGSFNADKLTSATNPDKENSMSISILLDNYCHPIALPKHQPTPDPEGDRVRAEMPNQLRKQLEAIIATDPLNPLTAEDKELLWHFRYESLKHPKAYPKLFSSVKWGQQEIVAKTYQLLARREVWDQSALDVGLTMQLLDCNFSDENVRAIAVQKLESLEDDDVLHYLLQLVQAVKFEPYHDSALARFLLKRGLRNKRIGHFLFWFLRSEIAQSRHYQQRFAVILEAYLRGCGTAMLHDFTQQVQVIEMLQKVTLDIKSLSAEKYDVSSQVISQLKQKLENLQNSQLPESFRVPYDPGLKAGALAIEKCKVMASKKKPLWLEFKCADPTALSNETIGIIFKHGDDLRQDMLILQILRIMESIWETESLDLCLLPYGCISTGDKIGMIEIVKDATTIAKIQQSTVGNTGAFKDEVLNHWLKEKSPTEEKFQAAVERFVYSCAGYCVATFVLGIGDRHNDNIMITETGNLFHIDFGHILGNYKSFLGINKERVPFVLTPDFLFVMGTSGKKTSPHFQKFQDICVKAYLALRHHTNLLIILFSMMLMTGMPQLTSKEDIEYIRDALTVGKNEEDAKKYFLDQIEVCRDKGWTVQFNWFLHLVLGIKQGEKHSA
Procedure: (§1) PI3K inhibition assay (PI3K Assay (Emmanuelle M, Huang Y, Yan H G et al. Targeting Protein Translation in Human Non-Small Cell Lung Cancer via Combined MEK and Mammalian Target of Rapamycin Suppression. Cancer Res 67:(23). (2007).) was carried out by PI3 Kinase activity/inhibitor assay kit, where PI3 kinase reaction was set up in Glutathione-coated strips/plate for inhibitor reaction. Kinase and inhibitors were pre-incubated for 10 minutes prior to the addition of PIP2 substrate. 5 μL of 5× kinase reaction buffer were added in each well followed by the further addition of 5 μL/well of PIP2 substrate. Then distilled H2O was added to each well so as to make up a final volume of 25 μL/well. Incubation was done at rt for 1 hour which was followed by washing the wells 3 times with 200 μL of 1×TBST per well and then 2 times with 200 μL of IX TBS per well. Then 100 μL of the Substrate TMB per well was added and then to keep for colour development in the dark for 5-20 minutes. However, appearance of the blue color to avoid over-development were monitored. 100 μL of the stop solution per well was used to stop the reaction. Readings were recorded at 450 nm.

PI3K δ = PI3K δ (Homo sapiens (Human), UniProt O00329); assay: PI3K inhibition assay, PI3K δ isoform; assay type: biochemical
Sequence of PI3K δ (O00329 whole entry, canonical isoform): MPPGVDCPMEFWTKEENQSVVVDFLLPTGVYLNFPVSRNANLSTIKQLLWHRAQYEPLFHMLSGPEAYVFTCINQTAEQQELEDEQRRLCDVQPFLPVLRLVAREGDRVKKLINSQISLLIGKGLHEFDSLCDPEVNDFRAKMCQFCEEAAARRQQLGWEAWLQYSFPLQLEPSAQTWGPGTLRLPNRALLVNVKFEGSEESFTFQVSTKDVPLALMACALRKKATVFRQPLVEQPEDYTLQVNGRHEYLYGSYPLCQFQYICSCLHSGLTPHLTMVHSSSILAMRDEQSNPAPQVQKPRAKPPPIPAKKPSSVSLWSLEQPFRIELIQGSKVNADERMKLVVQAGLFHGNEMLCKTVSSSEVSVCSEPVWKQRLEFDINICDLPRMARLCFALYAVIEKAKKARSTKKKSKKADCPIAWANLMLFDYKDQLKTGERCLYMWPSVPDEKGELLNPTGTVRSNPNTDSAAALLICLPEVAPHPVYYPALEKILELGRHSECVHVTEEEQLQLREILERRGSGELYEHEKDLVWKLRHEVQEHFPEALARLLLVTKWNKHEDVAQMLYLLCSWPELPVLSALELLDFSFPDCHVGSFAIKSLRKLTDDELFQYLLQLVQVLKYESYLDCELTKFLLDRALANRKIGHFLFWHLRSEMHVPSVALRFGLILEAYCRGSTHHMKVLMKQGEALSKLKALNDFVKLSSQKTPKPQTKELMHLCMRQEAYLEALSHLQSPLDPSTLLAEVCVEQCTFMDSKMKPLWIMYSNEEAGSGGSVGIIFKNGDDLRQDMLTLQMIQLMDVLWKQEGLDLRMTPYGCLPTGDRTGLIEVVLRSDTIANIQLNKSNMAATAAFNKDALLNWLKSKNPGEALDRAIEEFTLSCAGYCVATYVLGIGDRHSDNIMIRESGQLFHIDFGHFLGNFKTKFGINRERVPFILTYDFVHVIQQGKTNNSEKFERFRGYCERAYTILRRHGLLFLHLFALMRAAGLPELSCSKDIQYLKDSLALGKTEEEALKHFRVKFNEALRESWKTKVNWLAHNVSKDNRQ
Sequence of PI3K δ (P27986 whole entry partner, canonical isoform): as the sequence (P27986 whole entry partner) above
Procedure: as §1

caco-2 = assay: MTT cytotoxic assay, colon (caco-2) cell line; design: species or system human; conditions: 48 h, read-out: cell based IC50 (MTT)
Text: (§2) The MTT assay (MTT Assay (Legrier M E, Yang C P, Yan H G et al. Targeting protein translation in human non small lung cancer via combined MEK and mammalian target of rapamycin suppression. Cancer Res 67:11300-8(2007).) is useful for measuring the effect of a wide range of compounds on the in vitro growth of either normal or cancer cell lines. The assay was set up in a 96-well, flat-bottomed polystyrene microtiter plate. 3-5000 cells were suspended per well in appropriate growth medium, and the cells were added to replicate wells (triplicates were preferred). It was preferable to add the cells to the required number of wells in the plate prior to adding the drugs or the test agents. After the cells were added to the plate, it was placed on the incubator for overnight incubation, while the agents to be tested were being prepared. After overnight incubation drugs or test compounds were added at defined concentrations to each set of replicate wells and incubated for 48 hrs in CO2 incubator. Most of these compounds were dissolved in dimethyl sulfoxide (DMSO) for the final addition. After 48 hr incubation, diluted the MTT stock solution ([…]) with an equal volume of tissue culture medium and added 20 μl of this solution directly to each well with a multichannel pipette. […] A standard micro plate reader with adjustable wavelength across the visible spectrum was used. […]

human cancer cell lines = assay: In vitro cell line based anticancer activity, human cancer cell lines; conditions: 10 μM
Text: as §2

[1] = tested on: caco-2, colon human cancer cell line; assay: Cell cycle analysis by flow cytometry (propidium iodide); assay type: cell-based; conditions: caco-2, under similar conditions, concentration not given
Procedure: Analysis (Cell cycle (Waxman D J, Schwartz P S, Harnessing apoptosis for improved anti-cancer gene therapy, Cancer Res. 63:8563-8572(2003).) of a population of cells replication state can be achieved by fluorescence labeling of the nuclei of cells in suspension and then analyzing the fluorescence properties of each cell in the population. The experiment was performed using caco-2, colon human cancer cell line. Cells were seeded in 6 well plates at the concentration of 3×10^5 cells/ml/well. Plate was incubated in CO2 incubator for overnight. After overnight incubation test sample(s) were added at desired concentration, sparing wells for negative and positive control and incubated for 24 hrs. After 24 hr incubation, cell were trypsinized along with test sample from each well was extracted using a micropippete and separately transferred into 15 ml centrifuge tubes. Tubes were centrifuged at 3000 rpm for 5 min. […] Reading was taken on flow cytometer (BD Biosciences).
Results: Cell cycle is the life cycle of a cell. […] In the present study, the effect of compound E on the DNA content by cell cycle phase distribution was assessed by using colon (caco-2) cell line. […] Cells (2×10^6/ml/6-well plate), exposed to different concentrations of compound E were stained with propidium iodide (PI) to determine DNA fluorescence and cell cycle phase distribution. […]

[2] = tested on: caco-2 colon human cancer cell line; assay: Annexin-V apoptotic assay by flow cytometry; assay type: cell-based; conditions: caco-2, under similar conditions, concentration not given
Procedure: The cell death status was analysed using Annexin-V (Annexin-V apoptotic assay (Yunqing Li, FadilaGuessous, SherwinKwon, Manish Kumar. PTEN Has Tumor-Promoting Properties in the Setting of Gain-of-Function p53 Mutations, 2008 Cancer Res; 68: (6) (2008).) Flow cytometery. The experiment was performed using caco-2 colon human cancer cell line. Cells were seeded in 6 well plates at the concentration of 2×10^5 cells/ml/well. Plates were incubated in CO2 incubator for overnight. After overnight incubation test sample(s) were added at desired concentration, sparing wells for negative and positive control and incubated for 48 hrs. After 48 hr incubation, cell were trypsinized and separately transferred into 15 ml centrifuge tubes. Tubes were centrifuged at 3000 rpm for 5 min. The supernatant was discarded and pellet was resuspended in 1 ml filtered PBS and centrifuged at 2000 rpm for 5 min. After 5 mins supernatant was discarded and pellet was resuspended in […] of 1× binding buffer to make cell suspension. From this suspension, 100 μl of cells is transferred in falcon tube and then 10 μl of propidium iodide (PI) and 5 μl Annexin-V antibody were added and incubated for 30 min in dark. After 30 min incubation in dark, apoptosis were analysed by flow cytometer (BD Biosciences).
Overall, there was a concentration dependent net increase in late apoptotic cell population (FIG. 7).

[3] = tested on: pAkt (Ser 473) in CACO-2 cells; assay: Immunofluorescence microscopic analysis of pAKT (serine 473); assay type: cell-based, human; conditions: 4 μM, 24 hr
Procedure: For immunofluorescence microscopic analysis, 4×10^4 CACO-2 cells/ml were seeded on 18-mm coverslips in 6-well plates, one day before experiment. […] Following treatment, cells were washed in PBS, followed by fixation in absolute methanol at −20° C. for 5 min^19. The fixed cells were blocked with 10% goat serum in PBS for 20 min at room temperature to eliminate non-specific binding of secondary antibody. Cells were incubated with polyclonal rabbit pAKT (serine 473) primary antibody (1:100 in 0.5% BSA in PBS; Santa Cruz Biotechnology) for 1 h at 25° C. in moist chamber, then washed and incubated with secondary antibody. The cells were washed and incubated for 45 min with a Texas red-conjugated goat antirabbit antibody (1:500 in 0.5% BSA in PBS; Santa Cruz Biotechnology) at 25° C. The coverslips were mounted on glass slides with 4′,6-diamidino-2-phenylindole-containing ProLong Gold Antifade mounting medium (Invitrogen) and visualized by fluorescence microscope (Olympus, IX81) under an Olympus 60× oil immersion objective lens. The negative controls were also used in which incubation of cells with primary antibody was omitted.
Results: Phosphorylation (activation) of Akt is associated with protection of cells from apoptosis^20 (K. Nicholson, N. Anderson. 2002. The protein kinase B/Akt signaling pathway in human malignancy. Cell signal 14: 381-395). […]

Sequence of PI3Kα (P42336 whole entry, looked up): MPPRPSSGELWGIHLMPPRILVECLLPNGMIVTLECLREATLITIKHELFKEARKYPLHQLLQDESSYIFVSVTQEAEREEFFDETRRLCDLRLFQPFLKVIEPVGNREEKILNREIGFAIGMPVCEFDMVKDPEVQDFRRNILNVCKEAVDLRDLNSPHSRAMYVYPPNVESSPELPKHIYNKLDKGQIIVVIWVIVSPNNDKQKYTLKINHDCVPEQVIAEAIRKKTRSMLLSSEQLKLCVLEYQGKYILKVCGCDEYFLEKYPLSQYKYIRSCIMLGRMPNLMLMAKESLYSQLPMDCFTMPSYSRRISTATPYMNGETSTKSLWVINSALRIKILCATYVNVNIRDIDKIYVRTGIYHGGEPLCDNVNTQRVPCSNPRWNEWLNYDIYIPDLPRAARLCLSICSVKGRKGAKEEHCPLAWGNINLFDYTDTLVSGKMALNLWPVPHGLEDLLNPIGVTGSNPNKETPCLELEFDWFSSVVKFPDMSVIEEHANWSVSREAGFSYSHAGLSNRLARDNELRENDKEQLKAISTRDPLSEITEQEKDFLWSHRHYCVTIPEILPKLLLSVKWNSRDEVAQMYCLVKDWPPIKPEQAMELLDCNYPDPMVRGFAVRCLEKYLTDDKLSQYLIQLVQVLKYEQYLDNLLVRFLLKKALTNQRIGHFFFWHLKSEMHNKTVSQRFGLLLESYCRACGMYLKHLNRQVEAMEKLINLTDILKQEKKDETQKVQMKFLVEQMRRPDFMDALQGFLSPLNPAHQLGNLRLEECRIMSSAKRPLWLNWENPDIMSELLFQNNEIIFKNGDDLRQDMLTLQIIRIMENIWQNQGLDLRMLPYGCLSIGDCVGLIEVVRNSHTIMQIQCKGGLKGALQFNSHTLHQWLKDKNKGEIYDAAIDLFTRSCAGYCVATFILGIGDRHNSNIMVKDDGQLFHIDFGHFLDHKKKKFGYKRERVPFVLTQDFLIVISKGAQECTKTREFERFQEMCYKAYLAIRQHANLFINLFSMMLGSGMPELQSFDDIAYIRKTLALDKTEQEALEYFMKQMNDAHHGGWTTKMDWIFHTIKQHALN
Sequence of PI3Kα (P27986 whole entry partner, looked up): as the sequence (P27986 whole entry partner) above

| IC50 (PI3Kα) [nM] | IC50 (PI3Kβ; read-out: PI3K (IC50) β) [nM] | IC50 (PI3K γ) [µM] | IC50 (PI3K δ) [µM] | IC50 (PI3Kβ; read-out: IC50 against PI3Kβ) [nM] | Molecule | IC50 (caco-2) [nM] | optimal growth inhibition (human cancer cell lines) [%] | percentage of cells in sub-G0 phase [1] [%] | percentage of cells in late apoptotic phase [2] [%] | effect on pAkt (Ser 473) [3] |
| --- | --- | --- | --- | --- | --- | --- | --- | --- | --- | --- |
| 23 | 5700 | 85.4 | 303 |  | CC1(C)CCCC2(C)c3c(oc4c(B(O)O)c(O)c(O)cc34)CCC12 (centres unmarked) [Compound AZ] |  |  |  |  |  |
| 140 |  |  |  | 100 | C=C(CC/C=C(\C)CCC=C(C)C)c1cc2cc(OC)c(OC)cc2o1 [Compound A] | 2400 | > 74 |  |  |  |
|  |  |  |  |  | Liphagal |  |  | 64.9 | 42.7 | inhibition of pAKT |
